Source: patent US10478436B2, “Application of 5-HT6 receptor antagonists for the alleviation of cognitive deficits of down syndrome” (The University of Utah Research Foundation, priority 2011, dated 2019)
“Also recorded” adds a separate entry of the source.

Experiments:
control mice = assay: Exploratory paradigm: ability to recognize a novel object in a novel location (discrimination ratio), control littermates; format: in vivo, mouse; conditions: 3.0 mg/kg i.p.
Procedure: (§1) Male Ts65Dn/DnJ mice and male littermates were obtained from a commercial supplier (Jackson Laboratory, Bar Harbor, Me.), and tested at approximately 12-32 weeks of age, at a weight of 25-30 grams. Animals were kept on a 12 hour light/dark cycle and experimentation was conducted during the light portion of the cycle. Animals had unlimited access to food and water. All animals used were housed individually to limit the interference of social interaction on cognitive test performance. Animal care and experimental testing procedures conformed to NIH, IACUC, and AALAC standards and protocols.
(§2) Ts65Dn are compared to their control littermates for the effects of excipients and compounds in altering the performance and rescue of deficits in the Ts65Dn DS mouse model.
The apparatus for these experiments consisted of a 40 cm×40 cm Plexiglas box with clear walls and a dark grey floor. The box was placed on a circular white table 1 m in diameter. […]
The experimental paradigms utilized the inherent tendency of rodents to differentially explore novel stimuli over familiar stimuli. […] Exploration was recorded with an overhead video camera and the duration of exploration was measured with a stopwatch. […]
The duration of exploration of the Novel and Familiar stimuli during the Test Phase was individually measured with stopwatches, rounding to the 0.5 second. […]

Ts65Dn mice = assay: Exploratory paradigm: ability to recognize a novel object in a novel location (discrimination ratio), Ts65Dn Down syndrome mice; format: in vivo, mouse; conditions: for cognition (discrimination ratio) compared to treatment with vehicle alone: Ts65Dn mice; for cognition (discrimination ratio) compared to treatment with vehicle alone / cognitive performance (discrimination ratio) compared to no treatment / vehicle alone: 10 mg/kg i.p.; for cognitive performance (discrimination ratio) compared to no treatment / vehicle alone: 9-month-old Ts65Dn mice
Procedure: as §1, with “Male Ts65Dn/DnJ mice and male littermates were obtained from a commercial supplier (Jackson Laboratory, Bar Harbor, Me.), and tested at approximately 12-32 weeks of age, at a weight of 25-30 grams.” left out
as §2
The apparatus for these experiments consisted of a 40 cm×40 cm Plexiglas box with clear walls and a dark grey floor. The box was placed on a circular white table 1 m in diameter. Four distinct, approximately 20 cm×20 cm black and white shapes were placed 30 cm away from the midpoint of each side of the box. Objects were made from various washable, non-porous materials (plastic, metal, glass, etc.), 2-7 cm in height and varied in color, pattern and texture. To prevent odor cues, all apparatus and objects were disinfected and deodorized with HDQ after each use.
The experimental paradigms utilized the inherent tendency of rodents to differentially explore novel stimuli over familiar stimuli. Exploration was defined as any investigative behavior where mice have active and direct contact with an object. Such behaviors included head orientation and sniffing within <1.0 cm of the object, pawing, biting, or crawling over the objects. Exploration was recorded with an overhead video camera and the duration of exploration was measured with a stopwatch. The week prior to testing, all animals were handled in daily sessions and given an opportunity to habituate to the clear or red apparatus. Each experimental session presented the animal with new object sets and tests were separated by a minimum 48 hour interval. It should be noted that order effects are not normally observed in exploration tasks. Each test consisted of a Habituation Phase, during which mice display reduced exploration over time as a function of habituation, and a Test Phase on novelty detection that is interpreted to reflect recognition memory.
For each of the 7 compounds 1-7, the compound was administered to Ts65Dn mice via i.p. injection at a concentration of 3.0 mg/kg (compound 1) or 10 mg/kg (compounds 2, 3, 4, 5, 6, and 7) body weight delivered in a vehicle of methyl cellulose+0.2% tween 80 solution, while additional Ts65Dn mice were administered with vehicle alone. Each animal received a volume (ml) of drug in vehicle equal to 1% of its body weight (g) or an equal volume of vehicle alone. Forty minutes after the compound is injected, the Habituation phase begins. Therefore, the Test phase occurs 60 minutes after administration of the drug.
For each experiment the animal was placed in center of the clear acrylic box and presented with two different objects spaced 15 cm apart for 15 minutes of free explorations of the apparatus, stimulus objects, and distal environmental cues (Habituation Phase). After the Habituation Phase, a black container was placed over the mouse for a 5-minute Delay. During this delay, one object was exchanged with a new, unfamiliar object in a novel location (novel object), while the other object is replaced with an identical object in the same location (familiar object). Following the delay the black container was removed, beginning the Test Phase and the mouse is allowed to re-explore for 5 minutes (Test Phase).
The duration of exploration of the Novel and Familiar stimuli during the Test Phase was individually measured with stopwatches, rounding to the 0.5 second. […] A zero score would reflect no preference for either the novel or familiar object. A positive score reflects a preference for exploration of the novel object, and is associated with the animal's level of hippocampal function and memory or cognition. […]

[1] = Hirst et al. (2006); cited from earlier work
[2] = system: scopolamine-induced memory deficits; conditions: Mitchell and Neumaier (2008); cited from earlier work
mouse 5-HT6 receptor = mouse 5-HT6 receptor (Mus musculus, UniProt Q9R1C8); conditions: cited from earlier work
mouse 5-HT6 receptor, sequence (Q9R1C8 whole entry): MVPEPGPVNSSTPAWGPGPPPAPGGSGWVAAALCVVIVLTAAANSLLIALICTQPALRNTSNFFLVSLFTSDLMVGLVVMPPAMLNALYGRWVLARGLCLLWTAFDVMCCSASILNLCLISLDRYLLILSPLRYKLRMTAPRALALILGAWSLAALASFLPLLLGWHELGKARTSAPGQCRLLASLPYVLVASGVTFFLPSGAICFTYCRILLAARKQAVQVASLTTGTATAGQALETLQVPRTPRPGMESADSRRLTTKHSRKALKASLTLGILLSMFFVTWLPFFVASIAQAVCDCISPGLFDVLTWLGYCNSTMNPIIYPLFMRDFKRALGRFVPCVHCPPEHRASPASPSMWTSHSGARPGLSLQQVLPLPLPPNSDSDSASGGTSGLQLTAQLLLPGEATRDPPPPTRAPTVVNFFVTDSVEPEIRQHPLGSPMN

[3] = target: human recombinant and native 5-HT6 receptors (Homo sapiens, UniProt P50406); conditions: cited from earlier work
human recombinant and native 5-HT6 receptors, sequence (P50406 whole entry): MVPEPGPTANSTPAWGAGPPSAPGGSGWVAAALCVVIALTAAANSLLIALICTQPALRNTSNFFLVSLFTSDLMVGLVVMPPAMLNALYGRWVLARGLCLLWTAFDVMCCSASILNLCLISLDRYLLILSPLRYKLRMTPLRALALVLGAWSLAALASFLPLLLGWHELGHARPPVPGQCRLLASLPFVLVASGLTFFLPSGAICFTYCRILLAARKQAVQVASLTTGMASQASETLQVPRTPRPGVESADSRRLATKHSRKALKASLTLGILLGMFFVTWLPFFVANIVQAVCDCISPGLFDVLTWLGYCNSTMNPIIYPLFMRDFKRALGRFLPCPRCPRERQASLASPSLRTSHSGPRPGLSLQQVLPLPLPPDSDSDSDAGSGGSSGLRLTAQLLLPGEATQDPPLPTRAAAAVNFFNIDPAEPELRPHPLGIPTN

rat 5-HT6 receptor = rat 5-HT6 receptor (Rattus norvegicus, UniProt P31388); conditions: cited from earlier work
rat 5-HT6 receptor, sequence (P31388 whole entry): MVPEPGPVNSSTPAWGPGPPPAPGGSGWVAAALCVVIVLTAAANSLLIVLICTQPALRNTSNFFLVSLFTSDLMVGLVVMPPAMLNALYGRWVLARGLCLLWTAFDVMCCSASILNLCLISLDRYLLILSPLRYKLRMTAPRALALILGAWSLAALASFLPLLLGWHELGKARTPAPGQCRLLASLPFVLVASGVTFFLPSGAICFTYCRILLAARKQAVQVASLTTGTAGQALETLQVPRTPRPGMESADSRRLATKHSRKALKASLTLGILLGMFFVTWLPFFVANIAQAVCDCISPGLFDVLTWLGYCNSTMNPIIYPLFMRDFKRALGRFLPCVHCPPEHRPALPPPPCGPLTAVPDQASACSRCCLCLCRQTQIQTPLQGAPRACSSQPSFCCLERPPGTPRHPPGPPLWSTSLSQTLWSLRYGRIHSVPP

5-HT6 receptor [4] = target: T1, 5-HT6 receptor (Homo sapiens, UniProt P50406); conditions: Arnt et al. (2010); cited from earlier work
T1 sequence (P50406 whole entry): as the sequence (P50406 whole entry) above

18 other receptors = conditions: concentration of 10 μM; cited from earlier work
5-HT6 receptor [5] = target: T1, 5-HT6 receptor; conditions: cited from earlier work
[6] = Test phase 60 minutes after administration

In the case of COc1ccc(S(=O)(=O)Nc2cc(Cl)cc(Cl)c2OC)cc1N1CCNCC1 [compound 1, N-(3,5-dichloro-2-methoxyphenyl)-4-methoxy-3-(piperazin-1-yl)benzenesulfonamide], the “mean discrimination ratio, compound+vehicle vs. vehicle alone” value (control mice) is reported as “did not respond differently”, the “mean discrimination ratio compared to no treatment or treatment with vehicle alone” value (Ts65Dn mice; 3 to 4 month-old Ts65Dn mice, 3.0 mg/kg i.p., Test phase 60 minutes after administration) is reported as “significant increase” and the “discrimination ratio compared to no treatment or treatment with vehicle alone” value (Ts65Dn mice; 8-month-old Ts65Dn mice, 3.0 mg/kg i.p.) is reported as “significantly increased”. For the same molecule, the “persistence of the treatment effect on mean discrimination ratio” value (Ts65Dn mice; 8-month-old Ts65Dn mice, tested two weeks after the treatment experiments) was “did not last”, the brain penetration [1] was “brain penetrant” and the oral activity [1] was “orally active”.

In the case of COc1ccc2[nH]c(-c3ccccc3)c(CCN(C)C)c2c1 [compound 2, 2-(5-methoxy-2-phenyl-1H-indol-3-yl)-N,N-dimethylethanamine], the “effect on scopolamine-induced memory deficits” value [2] is given as “reverse” and the “cognition (discrimination ratio) compared to treatment with vehicle alone” value (“cognition (discrimination ratio)” for short) (Ts65Dn mice; [6]) is given as “significantly improves”.

In the case of O=S(=O)(c1cccc2ccccc12)n1ccc2ccc(N3CCN4CCCC4C3)cc21 (stereo not shown) [compound 3, 2-(1-(naphthalen-1-ylsulfonyl)-1H-indol-6-yl)octahydropyrrolo[1,2-a]pyrazine], the “cognition (discrimination ratio)” value (Ts65Dn mice; [6]) is reported as “significantly increased”.

In the case of CN1CCC(c2cn(C)c3ccc(OS(=O)(=O)c4c(F)cccc4F)cc23)CC1 [compound 4, 1-methyl-3-(1-methylpiperidin-4-yl)-1H-indol-5-yl 2,6-difluorobenzenesulfonate], the “cognition (discrimination ratio)” value (Ts65Dn mice; [6]) is reported as “trend to increased discrimination ratios”.

In the case of CNc1cc(NS(=O)(=O)c2ccc(N)cc2)nc(NC)n1 [compound 5, 4-amino-N-(2,6-bis(methylamino)pyrimidin-4-yl)benzenesulfonamide], the “cognition (discrimination ratio)” value (Ts65Dn mice; Test phase 60 minutes after administration, 10 mg/kg) is listed as “does not restore cognition; also recorded: does not improve cognition; also recorded: lack of response; also recorded: did not alter the cognitive abilities”, the “binding to the mouse 5-HT6 receptor” value (mouse 5-HT6 receptor) is listed as “does not bind; also recorded: does not recognize” and the “binding to the human 5-HT6 receptor” value [3] is listed as “binds the human”. For the same molecule, the “recognition of the rat 5-HT6 receptor” value (rat 5-HT6 receptor) was “recognizes the rat”.

For Fc1ccc2c(CCNCc3cccc(OCC(F)(F)C(F)F)c3)c[nH]c2c1 [compound 6, 2-(6-fluoro-1H-indol-3-yl)-N-(3-(2,2,3,3-tetrafluoropropoxyl)benzyl)ethanamine], the “cognitive performance (discrimination ratio) compared to no treatment / vehicle alone” value (Ts65Dn mice) is listed as “significant increase” and the “5-HT6 receptor agonist activity” value (5-HT6 receptor [4]) is listed as “no agonist activity”.

With O=S(=O)(c1ccccc1)c1cnc2c(N3CCNCC3)cccc2c1 [compound 7, 3-(phenylsulfonyl)-8-(piperazin-1-yl)quinoline] the “cognitive performance (discrimination ratio) compared to no treatment / vehicle alone” value (Ts65Dn mice) was “significantly improves”.

In the case of Cc1ccc2c(c1)c1c(n2CCc2ccc(C)nc2)CCN(C)C1 [dimebolin], the “inhibition of 18 other receptors” value (18 other receptors) is given as 50% and the “ability to bind as 5-HT6 receptor antagonist” value (5-HT6 receptor [5]) is given as “approximately 20 times weaker”.
